Results on two molecules are retold here after US10413517B2, “Composition and method for the treatment of neurological diseases and cerebral injury” (UNIVERSITY OF NOTRE DAME DU LAC, priority 2014, dated 2019).

Data set [1] relates to histone H3 and H4. Description: Histone acetylation in the brain (western blot). The following applies: within an hour of i.p. administration; Vo 50 mg/Kg in PEG; HPBCD 2000 mg/Kg. In kind it is in vivo, mouse. The procedure:
Npc1^nmf164 mice (6-7 weeks) were injected with either Vorinostat (50 mg/kg) or TCF through i.p route. Mice were sacrificed 1 hpi (1 hour post-injection) by asphyxiation using CO2. After homogenization of tissue, Histones were extracted using EpiQuik Total Histone extraction kit (Epigentek, NY, USA) as per manufacturer's instructions. Antibodies to Histone H3 (Lys14) and H4 (Lys5/8/12/16) from Millipore (CA, USA) were used in western blotting.

Data set [2] has as its system Npc1^nmf164 mice. In words: Neurobehavioral assessment (cumulative disease score 0-13). The note with it: for cumulative neurobehavioral disease score: at 105-112 days, scale 0-13, Vo 50 mg/Kg, 2×HPBCD 4000 mg/Kg, TCF; for onset of individual symptoms (gait, grooming, limb tone, weight): weekly i.p. treatment. In kind it is in vivo, mouse. The procedure:
A modified version of previously described method (Carroll et al., 2010) was used for assessing the neurobehavioral functions in mice. Six different parameters (FIG. 3A) associated with neurobehavioral functions of mice were assessed. Each mouse was assessed individually in an observation box (length, 31.8 cm, width, 19.8 cm and height, 10.5 cm) with a grid floor. A mouse was assessed for tremor (0 and 2), body position (0, 1 and 2), gait (0, 1 and 2), grooming (0, 1 and 2), limb tone (0, 1 and 2), and weight loss (0, 1, 2 and 3). For each symptom except weight, a mouse received a score 0 if no symptom was observed and score 2 when the most severe impairment in the function was seen. A mouse was given score 0 for weight loss below 5%, 1 for 5-10%, 2 for >10 and up to 20%, and 3 for >20 up to 30%. A cumulative score of 0-3 correlate with no neurobehavioral impairment and a score of 13 is the most impaired neurobehavioral function. Operator-independence scoring was also tested by two independent blinded operators on 6 NPC (Npc1^nmf164) and 4 healthy control (Npc1^+/nmf164) mice.

The subject of data set [3] is macrophages in the liver. In words: Liver macrophage labeling (anti-CTSS immunofluorescence). In kind it is in vivo, mouse. The following applies: 100 days, Vo 50 mg/Kg, HPBCD 2000 mg/Kg, TCF. The procedure: (§1) Mice were sacrificed by asphyxiation using CO2. Harvested organs were immersed fixed in 10% neutral buffered formalin (˜4% formaldehyde) for 24 hrs at RT. The organs were subsequently stored in 70% alcohol at RT until transfer to paraffin. Paraffin-embedded tissue sections (4-5 μm) were dewaxed in xylene and alcohol. Calbindin antigen retrieval was done by pre-incubating deparaffinized samples with 0.05% proteinase K (Dako, Germany) in 50 mM Tris-HCl (pH 7.5) for 8 min at RT. CTSS and NPC1 was retrieved by boiling the sections in acidic condition for 30 min. Blocking was done either with 2% goat serum (for calbindin and NPC1) or 2% rabbit serum (for cathepsin S) for 30 min at RT. Sections were incubated with anti-calbindin (1:1000, C9848, Sigma), anti-cathepsin S (20 μg/ml, M-19, Santa Cruz Biotechnology), anti-NPC1 (custom made against human NPC1 protein, 20 μg/ml) overnight at 4° C. The appropriate FITC or TRITC-conjugated secondary IgG (MP Biomedicals, Solon, Ohio, USA) antibodies were used at 1:200 dilution. Sections were subsequently washed with PBS containing DAPI (0.5 μg/ml). Vectashield (Vector laboratories) was used as mounting medium and processed for fluorescence microscopy.
(§2) Tissue sections after IFA and filipin stained fibroblasts were visualized with 40× oil-immersion objective lens (NA 1.35). Filipin stain was visualized using DAPI filter. Digital image collection were performed using an Olympus IX inverted fluorescence microscope and a Photometrix cooled CCD camera (CH350/LCCD) driven by DeltaVision software from Applied Precision (Seattle, Wash., USA). DeltaVision software (softWoRx) was used to deconvolve these images. Images are single optical sections. Images were analyzed using ImageJ software (NIH, MD, USA).

Data set [4] relates to Purkinje cells. In words: Calbindin immunofluorescence, Purkinje cell count in cerebellar sections. It counts as in vivo, mouse. The following applies: day 100, once weekly dosing. The procedure: as §1, §2
For data set [5], the system named is Npc1 transcript. Description: qPCR of Npc1 transcript in liver. The following applies: at 100 days. It counts as in vivo, mouse. The procedure:
Vorinostat (50 mg/Kg)—Vorinostat was first dissolved in DMSO (100 mg/ml) and then diluted with 9 volume of Polyethylene Glycol 400 (PEG). This drug solution was named as ‘solution A’. Solution A was diluted with equal volume of water where the final concentration of each component was as follows; Vorinostat, 5 mg/ml; DMSO, 5% and PEG, 45%. Mice were given weekly intraperitoneal (i.p) injections starting at 21 days. Vorinostat (100 mg/Kg)—Vorinostat was first dissolved in DMSO (200 mg/ml) and then mixed with 9 volumes of PEG. Rest of the methods and injections plan were as described above. HPBCD (4000 mg/Kg)—40% HPBCD solution prepared in water. Mice were given weekly i.p injections starting at 7 days. HPBCD (2000 mg/Kg)—20% HPBCD solution prepared in water. Mice were given weekly i.p injections starting at 7 days. TCF (Vorinostat, 50 mg/Kg+HPBCD, 2000 mg/Kg, DMSO, 5%+PEG, 45%)—To prepare the formulation, the ‘solution A’ was first prepared as described above and equal volume of 40% HPBCD solution was slowly layered on top of it. The solution was gently mixed for 10 min at RT on rocker set at medium speed. […]
Quantitative PCR (qPCR) was performed using Power SYBR Green RNA-to-CT 1-Step Kit and an ABI Prism 7500 Fast real-time PCR system (Applied Biosystems, Grand Island, USA). […] The relative amount of transcript was determined using comparative CT method. […]

The conditions of data set [6]: delivered systemically; cited from earlier work.

With `O=C(CCCCCCC(=O)Nc1ccccc1)NO` [vorinostat], the “acetylation of histone 3 or 4 (H3 or H4) in the brain (in words)” value in data set [1] is on record as “low levels of acetylation”. Also, in data set [2], the “cumulative neurobehavioral disease score” value is listed as 9-11. The “onset of individual symptoms (gait, grooming, limb tone, weight)” value in data set [2] is recorded as “no consistent, significant advantage in any symptomatic read out”. The “macrophages in the liver (histology)” value in data set [3] is on record as “also had effect but less so than TCF or HPBCD”; in data set [3] (listed as Vo) it was “reduced the clustering of macrophages”. Further, the “Purkinje cells in the cerebellum (in words)” value (“Purkinje cells” for short) is “no effect” in data set [4] and “Loss of Purkinje cells” in data set [4] (listed as Vo).

As to `CC(O)COC[C@H]1O[C@@H]2O[C@H]3[C@H](O)[C@@H](O)[C@@H](O[C@H]4[C@H](O)[C@@H](O)[C@@H](O[C@H]5[C@H](O)[C@@H](O)[C@@H](O[C@H]6[C@H](O)[C@@H](O)[C@@H](O[C@H]7[C@H](O)[C@@H](O)[C@@H](O[C@H]8[C@H](O)[C@@H](O)[C@@H](O[C@H]1[C@H](O)[C@H]2O)O[C@@H]8COCC(C)O)O[C@@H]7COCC(C)O)O[C@@H]6COCC(C)O)O[C@@H]5COCC(C)O)O[C@@H]4COCC(C)O)O[C@@H]3COCC(C)O` (stereo partly drawn) [HPBCD, 2-Hydroxypropyl-β-cyclodextrin], in data set [5], the “Npc1 transcript levels in the liver” value is “no effect on target Npc1 expression”. The “acetylation of histone 3 or 4 (H3 or H4) in the brain (in words)” value in data set [1] is reported as “neither vehicle control (PEG+DMSO) nor HPBCD stimulated significant acetylation”. For the same molecule, the “crossing of the blood brain barrier” value in data set [6] is reported as “does not cross the blood brain barrier”. For the same molecule, in data set [2], the “cumulative neurobehavioral disease score” value was 6-8; the “onset of individual symptoms (gait, grooming, limb tone, weight)” value is “Worsening in gait, grooming and weight were also delayed by 2×HPBCD, but less so than by the TCF”. Further, the “macrophages in the liver (histology)” value in data set [3] is given as “Foamy macrophages were barely seen”. The “Purkinje cells” value in data set [4] is listed as “Few lightly stained Purkinje cells”. Also, in data set [4] (listed as 2×HPBCD), the “Purkinje cells” value was “minor protection of Purkinje cell”.
